Where only a bound is given, the exact number is not on record here.

Drawing on US11427548B2 (Arvinas Operations, Inc., priority 2015, dated 2022), this text covers Dmax and DC50 for 24 compounds.

The target in this test is T1, Androgen Receptor (Homo sapiens, UniProt P10275+P40337, T878A).
T1 construct: Compounds have been evaluated in this assay in LNCaP and/or VCaP cells utilizing similar protocols; endogenous in cells; host or cells: LNCaP cells
Description: Androgen Receptor ELISA assay (PathScan AR ELISA) in LNCaP cells: AR degradation, Dmax and DC50. It counts as cell-based. As to conditions: for Dmax: highest percentage of Androgen Receptor degradation; for DC50: concentration that caused 50% Androgen Receptor degradation. (In general: ELISA stands for enzyme-linked immunosorbent assay.)

T1 sequence (P10275 whole entry T878A): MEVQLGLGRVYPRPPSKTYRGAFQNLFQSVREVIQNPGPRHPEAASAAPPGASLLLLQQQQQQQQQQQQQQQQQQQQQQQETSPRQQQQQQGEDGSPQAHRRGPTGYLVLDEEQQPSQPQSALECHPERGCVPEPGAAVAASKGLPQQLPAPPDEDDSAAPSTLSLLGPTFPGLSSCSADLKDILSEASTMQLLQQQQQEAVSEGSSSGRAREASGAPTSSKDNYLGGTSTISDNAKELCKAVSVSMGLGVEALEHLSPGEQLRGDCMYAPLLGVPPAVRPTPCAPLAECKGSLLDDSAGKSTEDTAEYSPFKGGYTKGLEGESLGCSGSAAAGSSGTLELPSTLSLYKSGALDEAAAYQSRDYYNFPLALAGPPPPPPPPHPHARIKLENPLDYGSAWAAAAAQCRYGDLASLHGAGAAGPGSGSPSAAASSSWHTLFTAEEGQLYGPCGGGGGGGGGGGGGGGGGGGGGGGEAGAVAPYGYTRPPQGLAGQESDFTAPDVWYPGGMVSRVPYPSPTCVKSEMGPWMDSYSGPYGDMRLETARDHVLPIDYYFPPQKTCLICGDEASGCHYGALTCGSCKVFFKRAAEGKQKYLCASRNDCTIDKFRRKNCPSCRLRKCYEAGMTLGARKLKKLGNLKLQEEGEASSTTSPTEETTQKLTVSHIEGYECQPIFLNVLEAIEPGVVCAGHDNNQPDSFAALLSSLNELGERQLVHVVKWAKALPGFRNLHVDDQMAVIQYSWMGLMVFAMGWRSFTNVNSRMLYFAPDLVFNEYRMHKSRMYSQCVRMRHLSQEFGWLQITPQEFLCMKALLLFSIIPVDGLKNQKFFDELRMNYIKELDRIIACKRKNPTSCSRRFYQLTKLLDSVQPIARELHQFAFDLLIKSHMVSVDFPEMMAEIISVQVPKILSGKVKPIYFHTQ
T1 sequence (P40337 whole entry): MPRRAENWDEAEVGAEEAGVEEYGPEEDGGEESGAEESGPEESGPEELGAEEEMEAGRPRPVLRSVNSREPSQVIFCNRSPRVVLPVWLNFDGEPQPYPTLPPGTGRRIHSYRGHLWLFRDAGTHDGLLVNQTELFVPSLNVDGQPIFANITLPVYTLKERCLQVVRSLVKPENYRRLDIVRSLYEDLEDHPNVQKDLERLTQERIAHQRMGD
T1 sequence (Q15369 whole entry partner): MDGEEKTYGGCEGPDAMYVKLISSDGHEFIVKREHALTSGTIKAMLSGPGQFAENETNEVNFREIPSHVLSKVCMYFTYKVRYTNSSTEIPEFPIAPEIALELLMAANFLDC
T1 sequence (Q15370 whole entry partner): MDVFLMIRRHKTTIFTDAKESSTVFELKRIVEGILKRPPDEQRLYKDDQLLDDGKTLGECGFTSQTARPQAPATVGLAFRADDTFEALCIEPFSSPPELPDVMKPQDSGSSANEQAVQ

By Dmax is commonly meant the largest share of the target that was removed. With `Cc1ncsc1-c1ccc(CNC(=O)[C@@H]2C[C@@H](O)CN2C(=O)[C@H](C(C)C)N2Cc3ccccc3C2=O)c(OCCOCCOCCCCCOCCOCCOc2ccc(N3C(=S)N(c4ccc(C#N)c(C(F)(F)F)c4)C(=O)C3(C)C)cc2)c1` [Example 218], the Dmax was in the range of 26 to 50%.

For the compound `Cc1ncsc1-c1ccc(CNC(=O)[C@@H]2C[C@@H](O)CN2C(=O)[C@H](C(C)C)N2Cc3ccccc3C2=O)c(OCCOCCOCCCCOCCCCOCCOCCOc2ccc(N3C(=S)N(c4ccc(C#N)c(C(F)(F)F)c4)C(=O)C3(C)C)cc2)c1` [Example 219], the Dmax was more than 71%. Turning to `Cc1ncsc1-c1ccc(CNC(=O)[C@@H]2C[C@@H](O)CN2C(=O)[C@H](C(C)C)N2Cc3ccccc3C2=O)c(OCCOCCOCCCCCOCCCCCOCCOCCOc2ccc(N3C(=S)N(c4ccc(C#N)c(C(F)(F)F)c4)C(=O)C3(C)C)cc2)c1` [Example 220], the Dmax was in the range of 51 to 70%. Compound `Cc1ncsc1-c1ccc(CNC(=O)[C@@H]2C[C@@H](O)CN2C(=O)[C@@H](NC(=O)COCCOCCOCCCCCOCCOCCOc2ccc(N3C(=S)N(c4ccc(C#N)c(C(F)(F)F)c4)C(=O)C3(C)C)cc2)C(C)(C)C)cc1` [Example 222] returned a Dmax of 26 to 50%. With `Cc1ncsc1-c1ccc(CNC(=O)[C@@H]2C[C@@H](O)CN2C(=O)[C@@H](NC(=O)COCCOCCCCOCCCCOCCOCCOc2ccc(N3C(=S)N(c4ccc(C#N)c(C(F)(F)F)c4)C(=O)C3(C)C)cc2)C(C)(C)C)cc1` [Example 223], the Dmax lay within 26 to 50%. On to `Cc1ncsc1-c1ccc(CNC(=O)[C@@H]2C[C@@H](O)CN2C(=O)[C@@H](NC(=O)COCCOCCCCCOCCCCCOCCOCCOc2ccc(N3C(=S)N(c4ccc(C#N)c(C(F)(F)F)c4)C(=O)C3(C)C)cc2)C(C)(C)C)cc1` [Example 224], for which the Dmax was in the range of 26 to 50%.

The DC50 is the midpoint of the concentration-degradation curve. A higher DC50 goes with degradation only at high concentration. `Cc1ncsc1-c1ccc(CNC(=O)[C@@H]2C[C@@H](O)CN2C(=O)[C@@H](NC(=O)COCCOCCOCCCCCOc2ccc(N3C(=S)N(c4ccc(C#N)c(C(F)(F)F)c4)C(=O)C3(C)C)cc2)C(C)(C)C)cc1` [Example 225] returned a DC50 of less than 50 nM and a Dmax of 51 to 70%.

`Cc1ncsc1-c1ccc(CNC(=O)[C@@H]2C[C@@H](O)CN2C(=O)[C@@H](NC(=O)CCCCCOCCCCOCCCCOc2ccc(N3C(=S)N(c4ccc(C#N)c(C(F)(F)F)c4)C(=O)C3(C)C)cc2)C(C)(C)C)cc1` [Example 227]: the DC50 was less than 50 nM and the Dmax was in the range of 26 to 50%. The compound `Cc1ncsc1-c1ccc(CNC(=O)[C@@H]2C[C@@H](O)CN2C(=O)[C@@H](NC(=O)CCOCCOCCCCCOc2ccc(N3C(=S)N(c4ccc(C#N)c(C(F)(F)F)c4)C(=O)C3(C)C)cc2)C(C)(C)C)cc1` [Example 228] returned a DC50 of 51 to 500 nM and a Dmax of 51 to 70%. On the same counts, the results for `Cc1ncsc1-c1ccc(CNC(=O)[C@@H]2C[C@H](O)CN2C(=O)[C@H](C(C)C)N2Cc3ccccc3C2=O)c(OCCOCCOCCOc2ccc(N3C(=S)N(c4ccc(C#N)c(C(F)(F)F)c4)C(=O)C3(C)C)cc2)c1` [Example 229] are 51 to 500 nM and 51 to 70%. For `Cc1ncsc1-c1ccc(CNC(=O)[C@@H]2C[C@@H](O)CN2C(=O)[C@@H](NC(=O)CCNC(=O)CCCc2ccc(N3C(=S)N(c4ccc(C#N)c(C(F)(F)F)c4)C(=O)C3(C)C)cc2)C(C)(C)C)cc1` [Example 231] the same measures were more than 501 nM and 51 to 70%. On to `Cc1ncsc1-c1ccc(CNC(=O)[C@@H]2C[C@@H](O)CN2C(=O)[C@@H](NC(=O)CCOCCNC(=O)CCCc2ccc(N3C(=S)N(c4ccc(C#N)c(C(F)(F)F)c4)C(=O)C3(C)C)cc2)C(C)(C)C)cc1` [Example 232], for which the DC50 is more than 501 nM and the Dmax fell in the range of 26 to 50%. As to `Cc1ncsc1-c1ccc(CNC(=O)[C@@H]2C[C@@H](O)CN2C(=O)[C@@H](NC(=O)CCOCCOc2ccc(N3C(=S)N(c4ccc(C#N)c(C(F)(F)F)c4)C(=O)C3(C)C)cc2)C(C)(C)C)cc1` [Example 233], the DC50 is more than 501 nM and the Dmax was in the range of 51 to 70%. On the same counts, the results for `Cc1ncsc1-c1ccc(CNC(=O)C2C[C@@H](OC(C)(C)C)CN2C(=O)[C@H](C(C)C)N2Cc3ccccc3C2=O)c(OCCOCCOCCOc2ccc(N3C(=O)N(c4ccc(C#N)c(C(F)(F)F)c4)C(=O)C3(C)C)cc2)c1` (stereo partly drawn) [Example 234] are 51 to 500 nM and 26 to 50%. Turning to `Cc1ncsc1-c1ccc(CNC(=O)C2C[C@@H](O)CN2C(=O)[C@H](C(C)C)N2Cc3ccccc3C2=O)c(OCCOCCOCCOc2ccc(N3C(=O)N(c4ccc(C#N)c(C(F)(F)F)c4)C(=O)C3(C)C)cc2)c1` (stereo partly drawn) [Example 235], the DC50 lay in the range of 51 to 500 nM and the Dmax was 51 to 70%.

`Cc1ncsc1-c1ccc(CNC(=O)[C@@H]2C[C@@H](O)CN2C(=O)[C@@H](NC(=O)COCCOc2ccc(N3C(=S)N(c4ccc(C#N)c(C(F)(F)F)c4)C(=O)C3(C)C)cc2)C(C)(C)C)cc1` [Example 236] came in with a 50% degradation concentration (DC50) of more than 501 nM and a Dmax of 26 to 50%. The compound `Cc1ncsc1-c1ccc(CNC(=O)[C@@H]2C[C@@H](O)CN2C(=O)[C@@H](NC(=O)CCCOc2ccc(N3C(=S)N(c4ccc(C#N)c(C(F)(F)F)c4)C(=O)C3(C)C)cc2)C(C)(C)C)cc1` [Example 237] had a DC50 of more than 501 nM and a Dmax of 26 to 50%. For `Cc1ncsc1-c1ccc(CNC(=O)[C@@H]2C[C@@H](O)CN2C(=O)[C@@H](NC(=O)OCCOCCCOCCOc2ccc(N3C(=S)N(c4ccc(C#N)c(C(F)(F)F)c4)C(=O)C3(C)C)cc2)C(C)(C)C)cc1` [Example 239] the same measures were less than 50 nM and 51 to 70%. `Cc1ncsc1-c1ccc(CNC(=O)[C@@H]2C[C@@H](O)CN2C(=O)[C@@H](NC(=O)COCCOCCCOCCOc2ccc(N3C(=S)N(c4ccc(C#N)c(C(F)(F)F)c4)C(=O)C3(C)C)cc2)C(C)(C)C)cc1` [Example 240] returned a DC50 of less than 50 nM and a Dmax of 51 to 70%.

The compound `Cc1ncsc1-c1ccc(CNC(=O)[C@@H]2C[C@@H](O)CN2C(=O)[C@H](C(C)C)N2Cc3ccccc3C2=O)c(OCCCOCCOc2ccc(N3C(=S)N(c4ccc(C#N)c(C(F)(F)F)c4)C(=O)C3(C)C)cc2)c1` [Example 241] gave a DC50 of less than 50 nM and a Dmax of 26 to 50%.

The compound `Cc1ncsc1-c1ccc(CNC(=O)[C@@H]2C[C@@H](O)CN2C(=O)[C@@H](NC(=O)COCCOCCCOc2ccc(N3C(=S)N(c4ccc(C#N)c(C(F)(F)F)c4)C(=O)C3(C)C)cc2)C(C)(C)C)cc1` [Example 243] gave a DC50 of 51 to 500 nM and a Dmax of 51 to 70%.

Take `Cc1ncsc1-c1ccc(CNC(=O)[C@@H]2C[C@@H](O)CN2C(=O)[C@@H](NC(=O)CCOCCCOc2ccc(N3C(=S)N(c4ccc(C#N)c(C(F)(F)F)c4)C(=O)C3(C)C)cc2)C(C)(C)C)cc1` [Example 244]: the DC50 lay within 51 to 500 nM and the Dmax is less than 25%. On the same counts, the results for `Cc1ncsc1-c1ccc(CNC(=O)[C@@H]2C[C@@H](O)CN2C(=O)[C@@H](NC(=O)CCCOCCOCCNC(=O)c2ccc(N3C(=S)N(c4ccc(C#N)c(C(F)(F)F)c4)C(=O)C3(C)C)cc2F)C(C)(C)C)cc1` [Example 245] are more than 501 nM and 26 to 50%.

In the case of `Cc1ncsc1-c1ccc(CNC(=O)[C@@H]2C[C@@H](O)CN2C(=O)[C@@H](NC(=O)CCCCOCCCCCOc2ccc(N3C(=S)N(c4ccc(C#N)c(C(F)(F)F)c4)C(=O)C3(C)C)cc2)C(C)(C)C)cc1` [Example 246], the DC50 lay within 51 to 500 nM and the Dmax was more than 71%.
